For series [1], the system named is Trichophyton mentagrophytes. Briefly: Antifungal activity against Trichophyton mentagrophytes ATCC 9129 by agar dilution method. Format: functional. (In agar dilution the substance is mixed into plates at graded concentrations.)
For series [2], the system named is Amaranthus hypochondriacus. Briefly: Inhibition of phytogrowth in Amaranthus hypochondriacus seedlings measured after 24 hrs incubation under dark condition. Format: functional, organism-based.
Series [3] is described as follows: Toxicity in brine shrimp larvae. The series is classed as organism-based. The following applies: artemia, in vivo.
The subject of a further series is Fusarium oxysporum. Briefly: Antifungal activity against Fusarium oxysporum. The series is classed as functional.
The next series concerns MCF7. Put plainly: Cytotoxicity against human MCF7 cells. The series is classed as functional. The following applies: read-out: ED50 (the source's name).
The subject of the next series is Echinochloa crus-galli. Briefly: Inhibition of phytogrowth in Echinochloa crus-galli seedlings measured after 48 hrs incubation under dark condition. The series is classed as functional, organism-based.
A further series relates to HT-29. Put plainly: Cytotoxicity against human HT29 cells. The series is classed as functional. Conditions: read-out: ED50 (the source's name).
The subject of another series is A549. Put plainly: Cytotoxicity against human A549 cells. The series is classed as functional. The following applies: read-out: ED50 (the source's name).
The subject of the next series is Aspergillus niger. Briefly: Antifungal activity against Aspergillus niger ATCC 16888 by agar dilution method. The series is classed as functional.

≈ marks a conversion by molar mass, not a printed value. A value given as a limit tells only on which side of the number the result lay.

For orientation: MIC means the least concentration at which growth counts as inhibited. A low value points to inhibition by little substance. A word on the IC50: it is the concentration needed to halve the response being measured. A low value points to greater potency. One may read the LC50 as the concentration lethal to half of the exposed cells or organisms. Read a high LC50 as lower toxicity. Regarding `C=CCc1cc(OC)c(OC)c(OC)c1OC`, the figures for the minimum inhibitory concentration (MIC) (in series [1]; against Fusarium oxysporum) were 500 µg/mL (≈ 2100 µM) and 250 µg/mL (≈ 1050 µM), respectively. Also, the IC50 in [2] worked out at 43 µg/mL (≈ 180 µM); in the series with Echinochloa crus-galli, 810 µg/mL (≈ 3400 µM). Moreover, the LC50 in series [3] is 144 µg/mL (≈ 604 µM). In addition, the EC50 in the series on MCF7 amounted to 46 µg/mL (≈ 193 µM); in the series on HT-29, 71 µg/mL (≈ 298 µM); in the series on A549 it was 29 µg/mL (≈ 122 µM).

For the compound `COc1cc(C=O)c(OC)c(OC)c1OC`, the IC50 in [2] was 822 µg/mL (≈ 3630 µM); in the series with Echinochloa crus-galli, above 1000 µg/mL.

`C[C@@H]1[C@H](O)[C@@H](C)/C=C/C=C/C=C/C=C/C=C/C=C/C=C/[C@H](O[C@@H]2O[C@H](C)[C@@H](O)[C@H](N)[C@@H]2O)C[C@@H]2O[C@](O)(C[C@@H](O)C[C@@H](O)[C@H](O)CC[C@@H](O)C[C@@H](O)CC(=O)O[C@H]1C)C[C@H](O)[C@H]2C(=O)O` [AMPHOTERICIN B] had an MIC in the series with Aspergillus niger of 3 µg/mL (≈ 3.25 µM).

Take `COc1cccc2c1C(=O)c1c(O)c3c(c(O)c1C2=O)C[C@@](O)(C(=O)CO)C[C@@H]3O[C@H]1C[C@H](N)[C@H](O)[C@H](C)O1` [DOXORUBICIN]: the EC50 turned out to be 0.3 µg/mL (≈ 0.552 µM) in the series on MCF7, 0.007 µg/mL (≈ 0.0129 µM) in the series with HT-29 and 0.03 µg/mL (≈ 0.0552 µM) with A549.

In series [1], `COC1=CC(=O)C[C@@H](C)[C@]12Oc1c(Cl)c(OC)cc(OC)c1C2=O` [GRISEOFULVIN] showed an MIC of 2.6 µg/mL (≈ 7.37 µM).

Take `CCCCC[C@H]1CCCCCCCCCC(=O)O[C@H]2[C@H](O)[C@@H](CO)O[C@@H](O[C@H]3[C@H](O1)O[C@H](C)[C@H](O)[C@@H]3O)[C@@H]2O[C@@H]1O[C@@H](C)[C@H](OC(=O)[C@@H](C)CC)[C@@H](O[C@@H]2O[C@@H](C)[C@H](O)[C@@H](O)[C@H]2O)[C@H]1OC(=O)[C@@H](C)CC` [TRICOLORIN A]: in the series with Echinochloa crus-galli, half-maximal inhibition (IC50) was put at 12 µg/mL (≈ 11.7 µM).
